The source of these data is article PMC11459619, “Evaluating the amoeba thioredoxin reductase selenoprotein as potential drug target for treatment of Acanthamoeba infections” (International Journal for Parasitology: Drugs and Drug …, 2024).

Like-named read-outs stand apart in the source and are kept apart here.

As a reminder, the IC50 is the midpoint of a concentration-inhibition curve. In general, Km refers to the concentration of substrate that gives half-maximal velocity. The term Vmax denotes the rate approached at saturating substrate. For orientation: kcat means the maximal rate divided by the concentration of active sites. One may read the kcat/Km as the second-order rate constant that governs catalysis at low substrate concentration.

Series [1] concerns the target T1, AcTrxR-L (Acanthamoeba castellanii, UniProt L8HG59).
T1 construct: gene ACA1_153040; recombinant selenoprotein from E. coli C321.ΔA (pABC2a, UAG as Sec codon, SECIS element); N-terminal His-SUMO removed with ULP1; homodimer with one FAD per subunit
T1 sequence (L8HG59 1-526): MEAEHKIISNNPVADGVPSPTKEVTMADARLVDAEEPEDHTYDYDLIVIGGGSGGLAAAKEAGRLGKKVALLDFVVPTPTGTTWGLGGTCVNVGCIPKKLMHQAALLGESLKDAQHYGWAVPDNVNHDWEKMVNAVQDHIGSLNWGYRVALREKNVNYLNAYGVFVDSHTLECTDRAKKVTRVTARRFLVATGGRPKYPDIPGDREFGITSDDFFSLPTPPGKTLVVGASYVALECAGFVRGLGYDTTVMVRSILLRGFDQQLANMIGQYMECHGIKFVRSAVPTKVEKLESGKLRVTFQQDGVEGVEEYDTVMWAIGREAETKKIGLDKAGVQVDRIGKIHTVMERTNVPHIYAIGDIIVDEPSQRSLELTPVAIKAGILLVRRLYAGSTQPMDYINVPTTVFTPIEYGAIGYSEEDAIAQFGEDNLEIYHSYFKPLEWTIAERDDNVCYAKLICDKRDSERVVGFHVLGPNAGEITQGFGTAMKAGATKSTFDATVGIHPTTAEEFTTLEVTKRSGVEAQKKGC
As to the kind of experiment: DTNB reduction at 412 nm (250 μM NADPH, 1 mM DTNB, TE buffer) after preincubation of 50 nM AcTrxR-L with inhibitor, 250 μM NADPH and 0.01 mg/ml BSA for 30 min (10 min in results), diluted 5-fold, without desalting. In kind it is biochemical. Conditions: n = 2; read-out: IC50 (μM), Not desalted. As to the method: (§1) Then, the reaction was diluted 5-fold and 200 μl was desalted using Zeba™ Spin Desalting Columns and Plates, 40K MWCO (Thermo Scientific, 87767), whereupon 100 μl of the reactions, either desalted or not desalted, were transferred to each well of a 96 well plate. Subsequently, 250 μM NADPH and 1 mM DTNB were added to each well. The TNB^− formation at A412 nm was followed by a spectrophotometer and experiments were carried out in duplicates. The IC50 values were determined based on the nonlinear regression (curve fit), dose-response-inhibitor equation, log (inhibitor) vs. normalized response (variable slope) using GraphPad Prism.

Series [2] has as its target T1, AcTrxR-L. As to the kind of experiment: DTNB reduction at 412 nm (250 μM NADPH, 1 mM DTNB, TE buffer) after preincubation of 50 nM AcTrxR-L with inhibitor, 250 μM NADPH and 0.01 mg/ml BSA for 30 min (10 min in results), diluted 5-fold and desalted to remove free inhibitor. In kind it is biochemical. Conditions: n = 2. The procedure: as §1
The subject of series [3] is AcTrxR-L. As to the kind of experiment: Direct DTNB reduction assay. The series is classed as biochemical, Acanthamoeba castellanii. As to the method:
Unless stated otherwise, all enzyme assays for AcTrxR-L were based upon well-established selenoprotein TrxR assays, as outlined earlier ([Arnér, 2018]). Kinetic parameters of AcTrxR-L were determined with different biochemical assays in triplicates in cuvettes as previously described ([Fata et al., 2022]). First, the specific activity of AcTrxR-L was calculated from its NADPH-dependent DTNB reduction. The reaction mixture contained 10 nM AcTrxR-L, 250 μM NADPH, and 2.5 mM DTNB in TE buffer (50 mM Tris and 2 mM EDTA, pH 7.5), and the reduction of DTNB was monitored by measuring the formation of the TNB^− anion at A412 nm on a spectrophotometer. Each DTNB is reduced into 2 molecules of TNB^− with extinction coefficient of 13,600 M^−1cm^−1 at 412 nm and the specific activity of the enzyme was calculated as Unit per mg (U/mg), with 1 U (μmol/min) defined as conversion of 1 μmol of DTNB substrate per minute.
Apparent Michaelis-Menten parameters were in all cases calculated based on the nonlinear fit of the velocity vs substrate concentration curves to the Michaelis-Menten equation by using GraphPad Prism.

A further series relates to AcTrxR-S. Also noted: method as in Leitsch et al., 2021. The conditions noted are these: ref Leitsch et al., 2021; read-out: IC50 enzymatic activity of AcTrxR-S; cited from earlier work.
The subject of series [4] is human corneal epithelial cells (HCECs). The series is described as follows: Cytotoxicity test on human corneal epithelial cells (CellTiter 96 AQueous One). The series is classed as cell-based. Conditions: HCEC; for TD50 24 h: 24 h of treatment; for TD50 48 h: 48 h of treatment; for TD50 72 h: 72 h of treatment. The procedure:
Cytotoxicity of the compounds towards human corneal epithelial cells (HCECs) (Innoprot, ref. P10871) was determined ([Loufouma Mbouaka et al., 2023]) in 96-well microplates. The HCECs (1 × 10^4 cells/well) were grown in 100 μL of corneal epithelial cell medium (CEpiCM) (Innoprot, ref. P60131) supplemented with 1% of corneal epithelial cell growth supplement (CEpiCGS), 2% of fetal bovine serum (FBS) and 1% antibiotic mix: 10,000 U penicillin, 10 mg streptomycin and 25 μg amphotericin B per milliliter. After overnight incubation, cytotoxicity was evaluated adding 20 μL of CellTiter 96® AQueous One Solution Reagent (Promega, Madison, WI, USA). After 1 h of incubation at 37 °C, the absorbance at 490 nm was read using a spectrophotometer (Tecan, Spark 10M, Switzerland).
The TD50 values were calculated using the same method as the IC50 values with GraphPad Prism. Moreover, the therapeutic index was determined as the ratio of TD50 to IC50 ([Muller and Milton, 2012]).

Series [5] relates to Acanthamoeba strain Neff trophozoites. As to the kind of experiment: In vitro amoebicide assay, trypan blue direct counting. The series is classed as cell-based, Acanthamoeba castellanii. As to the method: Acanthamoeba castellanii strain Neff (ATCC® 30010™) genotype T4 was used for all experiments. The amoebae were grown in peptone yeast extract-glucose medium (PYG) in 75 cm^2 tissue culture flasks at 25 °C with weekly medium changes as described previously ([Köhsler et al., 2022]).
The amoebicidal activity was assessed by direct counting, using trypan blue ([Martín-Pérez et al., 2021]) and assayed in sterile 96-well microplates. Diverse drug concentrations (0–20 μM) were prepared via serial dilutions in DMSO, keeping total DMSO at 5% in the control well and in the drug solution wells ranging 5–3%. Amoebae from log-phase cultures (5 × 10^4 trophozoites/well) were inoculated into the microplates and the trophozoites were resuspended in PYG medium. Drug assays contained 100 μL of trophozoites solution, 90 μL of PYG media and 10 μL of the drug solution per well. The growth control (positive control) included 100 μL of trophozoites solution, 90 μL of PYG medium and 10 μL of DMSO. Each drug concentration and control were investigated in triplicates and each experiment was repeated in two independent setups. The plates were incubated at 25 °C during 4, 24, 48 and 72 h. Samples were placed in a Bürker-Türk counting chamber. The IC50 was calculated using GraphPad Prism, as explained previously.

The test system of series [6] is different strains of Acanthamoeba. Conditions: ref Feng et al. (2020); read-out: IC50 against Acanthamoeba trophozoites; cited from earlier work.
Series [7] relates to AcTrxR-L. The series is described as follows: Inhibition of AcTrxR-L, direct DTNB reduction assay. In kind it is biochemical, Acanthamoeba castellanii. Conditions: for IC50: DTNB reduction; for Reversibility of AcTrxR-L inhibition after desalting: removal of compound from solution by desalting. As to the method:
as §1, with “The reaction consisted of incubating 50 nM AcTrxR-L with 0.5–10 μM of auranofin, TRi-1 or TRi- 2, or 1% v/v DMSO, 250 μM NADPH and 0.01 mg/ml BSA in TE buffer for 30 min ([Fata et al., 2022]). Then,” for “Then,”

The next series concerns Schistosoma mansoni. More on the design: method as in Kuntz et al., 2007. The conditions noted are these: treatment of infected mice; ref Kuntz et al., 2007; cited from earlier work.
The test system of the next series is HCEC. More on the design: method as in Martín-Pérez et al., 2019. Conditions: ref Martín-Pérez et al., 2019; read-out: IC50 against HCEC; cited from earlier work.
Substrate in series [8]: O=C(O)c1cc(SSc2ccc([N+](=O)[O-])c(C(=O)O)c2)ccc1[N+](=O)[O-]
As to the kind of experiment: purified protein, by the assay type. The conditions noted are these: pH 7.5.

Setting [9] is: 48 h of treatment, read-out: IC50 48 h.
Setting [10] is: 72 h of treatment, read-out: IC50 72 h.
Where [11] appears, read: after removal of the inhibitors by desalting, read-out: IC50 Desalted.
The mark [12] stands for this setting: in presence of the inhibitors, 50 nM AcTrxR-L, read-out: IC50 Not desalted.

Consider “thioredoxin reductase inhibitor -2 [TRi-2]”, for which the concentration for half-maximal inhibition (IC50) at AcTrxR-L [1] and on AcTrxR-L [2] was more than 10 µM in each case.

As for `CC[PH](CC)(CC)[Au][S][C@@H]1O[C@H](COC(C)=O)[C@@H](OC(C)=O)[C@H](OC(C)=O)[C@H]1OC(C)=O` [Auranofin, auranofin (Ridaura), gold-based compound], the half-maximal inhibitory concentration (IC50) was 0.32 ± 0.39 µM on AcTrxR-L [1] and 0.32 ± 0.55 µM at AcTrxR-L [2].

Consider `O=C(O)c1cc(SSc2ccc([N+](=O)[O-])c(C(=O)O)c2)ccc1[N+](=O)[O-]` [DTNB], for which, in the series with AcTrxR-L [3], the Michaelis constant (Km) was 384 ± 63.7 µM, the Vmax is 238.1 ± 19.01 µmol/min/mg and the kcat was 79.37 s⁻¹.

For `CC(=O)OC[C@H]1O[C@@H]([S-])[C@H](OC(C)=O)[C@@H](OC(C)=O)[C@@H]1OC(C)=O.CCP(CC)CC.[Au+]` [Auranofin, auranofin], the half-maximal inhibitory concentration (IC50) is 216 nM with AcTrxR-S; 21100 ± 11000 nM in [5] (setting [9]); 5640 ± 1350 nM in series [5] (setting [10]); 5790 nM in [6]; 320 ± 550 nM with AcTrxR-L [7] (setting [11]); 320 ± 390 nM with AcTrxR-L [7] (setting [12]). In addition, the “TD50 24 h” value in series [4] was determined as 2.79 ± 0.076 µM. The “TD50 48 h” value in [4] was found to be 1.18 ± 0.103 µM. Besides, the “TD50 72 h” value in series [4] came out at 0.97 ± 0.045 µM. Besides, the “Reversibility of AcTrxR-L inhibition after desalting” value with AcTrxR-L [7] was “irreversibly inhibit the enzyme”. For the same molecule, the “Reduction of worm burden” value in the series on Schistosoma mansoni is reported as 60%.

`[H]/N=C(\N/C(=N/[H])NCCCCCCNC(=N)NC(=N)Nc1ccc(Cl)cc1)Nc1ccc(Cl)cc1` [chlorhexidine]: the 50% inhibitory concentration (IC50) in the series with HCEC is 1580 nM.

For `COc1ccc([N+](=O)[O-])c(S(=O)(=O)c2ccc(Cl)cc2)n1` [TRi-1], in [4], the “TD50 24 h” value amounted to 8.84 ± 0.044 µM. Besides, in series [4], the “TD50 48 h” value turned out to be 8.40 ± 0.168 µM. Also, the “TD50 72 h” value in series [4] was 8.40 ± 0.003 µM. Further, the IC50 is 17700 ± 1640 nM in [5] (24 h of treatment, read-out: IC50 24 h); 7650 ± 1710 nM in series [5] (setting [9]); 4290 ± 862 nM in series [5] (setting [10]); 370 ± 110 nM in the series with AcTrxR-L [7] (setting [11]); 360 ± 70 nM with AcTrxR-L [7] (setting [12]). Also, the “Reversibility of AcTrxR-L inhibition after desalting” value in the series on AcTrxR-L [7] is on record as “irreversibly inhibit the enzyme”.

Consider `COc1ccc([N+](=O)[O-])c(S(=O)(=O)c2ccc(Cl)cc2)n1` [TRi-1, thioredoxin reductase inhibitor -1], for which the IC50 is 0.36 ± 0.07 µM at AcTrxR-L [1] and 0.37 ± 0.11 µM at AcTrxR-L [2].

B1: AcTrxR-L (Acanthamoeba castellanii str. Neff) (protein)
chain: MEAEHKIISNNPVADGVPSPTKEVTMADARLVDAEEPEDHTYDYDLIVIGGGSGGLAAAKEAGRLGKKVALLDFVVPTPTGTTWGLGGTCVNVGCIPKKLMHQAALLGESLKDAQHYGWAVPDNVNHDWEKMVNAVQDHIGSLNWGYRVALREKNVNYLNAYGVFVDSHTLECTDRAKKVTRVTARRFLVATGGRPKYPDIPGDREFGITSDDFFSLPTPPGKTLVVGASYVALECAGFVRGLGYDTTVMVRSILLRGFDQQLANMIGQYMECHGIKFVRSAVPTKVEKLESGKLRVTFQQDGVEGVEEYDTVMWAIGREAETKKIGLDKAGVQVDRIGKIHTVMERTNVPHIYAIGDIIVDEPSQRSLELTPVAIKAGILLVRRLYAGSTQPMDYINVPTTVFTPIEYGAIGYSEEDAIAQFGEDNLEIYHSYFKPLEWTIAERDDNVCYAKLICDKRDSERVVGFHVLGPNAGEITQGFGTAMKAGATKSTFDATVGIHPTTAEEFTTLEVTKRSGVEAQKKGC
As for B1, in series [8], the Michaelis constant (Km) is 384.1 ± 63.74 µM, the maximum rate (Vmax) came out at 238 µmol/min/mg, the turnover number (kcat) came out at 79.4 s⁻¹ and the kcat/Km stood at 200000 M⁻¹ s⁻¹.
